Measurements from US5863905A, “2',5'-phosphorothioate/phosphodiester oligoadenylates and anti-viral uses thereof” (Temple University-Of The Commonwealth System of Higher …, priority 1997, dated 1999).
“Also recorded” adds a separate entry of the source.

How the values were obtained:
HIV-1 strain IIIB = experiment: Inhibition of HIV-1-induced syncytia formation (infected centers assay); assay type: cell-based; settings: for inhibition of HIV-1-induced syncytia formation: 3×10^-4 M, PBL infected with HIV-1 IIIB, Sup T1 cells, read at 72 h; for inhibition of syncytia formation (in words): 3×10^-4 M (adenosine 9×10^-4 M)
Excerpt: FIG. 5A represents the results of an assay performed according to the method of Henderson et al., Virology 182: 186-198 (1991), indicating the inhibition of HIV-1 (IIIB)-induced syncytia formation by adenosine, 2-5A trimer or tetramer core or 2',5'- phosphorothioate/phosphodiester trimer derivatives: ARp *ApA, ASp *ApA, ApARp *A, ApASp *A, ARp *ApApA, ASp *ApApA, ApARp *ApA, ApASp *ApA, ApApARp *A, ApApASp *A.
FIG. 5B is the results of an assay performed according to the method of FIG. 5A with a 2',5'-phosphorothioate/phosphodiester tetramer derivative of 2-5A core.
The infected centers assay as described by Henderson et al., Virology 182: 186-198 (1991), was used to measure the ability of the phosphorothioate/phosphodiester derivatives of 2-5A trimer and tetramer cores to inhibit HIV-1 induced syncytia formation, an indicator of HIV-1 replication in T cells. Freshly isolated peripheral blood lymphocytes (PBL) were treated with 2-5A or derivatives for 2 h and infected with HIV-1 strain IIIB at a m.o.i. of approximately 0.1. The infected PEL were maintained in RPMI-1640 medium supplemented with 10% (v/v) heat-inactivated fetal calf serum at 37° C. in a humidified 5% CO2 in air atmosphere. After 48 h, the cells were washed twice in Hank's balaned salt solution, serially diluted and seeded into multiple wells of a 96-well microtiter plate. Immediately, 2×10^5 exponentially growing Sup T1 cells were added to each well; Sup T1 cells readily form a syncytium with a cell which is productively infected with HIV-1. The wells were examined daily for the presence of syncytia, using a tissue culture microscope. The first signs of syncytia formation can be seen in 12 h, with some complete syncytia developing by 24 h. Final results were read at 72 h. Each syncytium was counted as a single infected cell. The number of syncytia per seeded cell is determined and expressed as an infected center per infected cell. In the control (no 2-5A derivative added), 100% syncytia formation was equivalent to 12±3 syncytia per 200 HIV-1 infected cells.

serum phosphodiesterases = experiment: Stability of 2-5A core derivatives to serum phosphodiesterase; assay type: in vitro ADME, fetal calf; settings: 300 μM, 37° C.; for Hydrolysis Products: 10% fetal calf serum, 6 h, identified by HPLC; for % Hydrolysis: RPMI-1640 + 10% fetal calf serum, 6 h (A2, A3: 20 min)
Description: The stability of authentic 2-5A and phosphorothioate/phosphodiester trimer and tetramer core derivatives (300 μM) was determined by incubation in 200 μL of RPMI-1640 medium supplemented with 10% fetal calf serum in 5% CO2 -in-air at 37° C. Aliquots (30 μL) were removed at time zero and 6 hours. The hydrolysis products were identified by HPLC as described in Kariko et al. , Biochemistry 26: 7127-7135 (1987).
No hydrolysis of the phosphorothioate/phosphodiester trimer core derivatives was observed. However, the phosphorothioate/phosphodiester tetramer core derivatives were hydrolyzed from the 5'- or 2',3'-terminus, depending on the location of the phosphorothioate-substituted internucleotide linkage.

[1] = test system: HIV-1 reverse transcriptase; experiment: HIV-1 reverse transcriptase activity in culture supernatant of infected Sup T1 cells; assay type: cell-based; settings: 300 μM (adenosine and adenine 900 μM), 6 h pre-treatment, 96 h post-infection; average of triplicates
Description: Sup T1 cells were treated with 2-5A or a phosphorothioate/phosphodiester derivative at 300 μM for 6 hours and then infected with HIV-1 at a multiplicity of infection (M.O.I) of approximately 0.1. Adenosine and adenine were tested at 900 μM. At 96 hours post-infection, culture supernatant was removed and HIV-1 RT activity was assayed in triplicate as described by Henderson et al., Virology 182:186-198 (1991). Briefly in this method, 25 μl of culture supernatant was added to a 50 μl cocktail containing 50 mM Tris (pH 8.0), 20 mM dithiothreitol, 10 mM MgCl2, 60 mM NaCl, 0.05 Nonidet p-40, 5 μg/ml oligodeoxythymidylic acid, 10 μg/ml polyriboadenylic acid, 10 μM deoxythymidine triphosphate and 1 mCi [^32 p]thymidine 5'-triphosphate. The mixture was incubated at 37° C. for 2 hours. Fifty microliters of the cocktail were then spotted onto diethylaminoethyl (DEAE) paper, dried, washed with 2× SSC solution (three times for 10 minutes each time) and 95% ethanol (two times for 5 minutes each time), dried and exposed to radiographic film for 18 to 24 hours at -80° C. The filters were cut and final quantitation was determined by scintillation spectrometry.

RNase L = experiment: rRNA cleavage assay in L929 cell extracts (activation of RNase L); assay type: biochemical; settings: 1 h at 30° C., > = no activation up to this concentration
Description: FIG. 2A represents the results of a ribosomal RNA cleavage assay with 2',5'-phosphorothioate/phosphodiester trimer core 2-5A derivatives. The procedure was performed according to the method of Kariko et al., Biochemistry 26: 7127-7135 (1987). 2-5A oligomer (phosphodiester internucleotide linkage) is also included for comparison. L929 cell extracts were incubated in the absence (lane 1) or presence of p3 A3 at 10^-8 M (lane 2), ARp *ApA at 10^-6 M (lane 3), ASp *ApA at 10^-6 M (lane 4), ApARp *A at 10^-6 M (lane 5), ApASp *A at 10^-6 M (lane 6) or A3 at 10^-6 M (lane 7). The positions of 28S and 18S rRNA are shown; the arrows indicate the positions of the well-characterized specific cleavage products (SCP) of RNase L.
FIG. 2B represents the results of a ribosomal RNA cleavage assay performed according to the method of FIG. 2A with 2',5'-phosphorothioate/phosphodiester trimer 5'-monophosphate derivatives. L929 cell extracts were incubated in the absence (lane 1) or presence of p3 A3 at 2×10^-9 M (lane 2), pA3 at 10^-6 M (lane 3), pARp *ApA at 10^-7 M (lane 4), pASp *ApA at 10^-7 M (lane 5), pApARp *A at 2×10^-9 M (Lane 6), pApASp *A at 10^-7 M (lane 7).
FIG. 3A represents the results of a ribosomal RNA cleavage assay performed according to the method of FIG. 2A with 2',5'-phosphorothioate/phosphodiester tetramer core 2-5A derivatives. 2-5A oligomer (phosphodiester internucleotide linkage) is also included for comparison. L929 cell extracts were incubated in the absence (lane 1) or presence of p3 A4 at 10^-8 M (lane 2), A4 at 10^-5 M (lane 3), ARp *ApApA at 10^-5 M (lane 4), ASp *ApApA at 10^-5 M (lane 5), ApARp *ApA at 10^-5 M (lane 6), ApASp *ApA at 10^-5 M (lane 7), ApApARp *A at 10^-5 M (lane 8) or ApApASp *A at 10^-5 M (lane 9).
FIG. 3B represents the results of a ribosomal RNA cleavage assay performed according to the method of FIG. 2A with 2',5'-phosphorothioate/phosphodiester tetramer 5'-monophosphate derivatives. L929 cell extracts were incubated in the absence (lane 1) or presence of p3 A4 at 10^-8 M (lane 2), pA4 at 10^-6 M (lane 3), pARp *ApApA at 10^-6 M (lane 4), pASp *ApApA at 10^-6 M (lane 5), pApARp *ApA at 10^-8 M (lane 6), pApASp *ApA at 10^-5 M (lane 7), pApApARp *A at 10^-7 M (lane 8) or pApApASp *A at 10^-7 M (lane 9).
Activation of RNase L by the phosphorothioate/phosphodiester trimer and tetramer 2-5A derivatives was also measured in a rRNA cleavage assay using L929 cell extracts according to the method of Kariko et al. (1987), supra, in which extracts of L929 cells were incubated for 1 h at 30° C. in the presence or absence of 2-5A or 2-5A derivative. […] Authentic p3 A3 was active at 1×10^-8 M (FIG. 2A, lane 2). The corresponding 5'-monophosphates, pARp *ApA, pASp *ApA and pApARp *A, activated at 1×10^-7 M, 1×10^-7 M, and 2×10^-9 M, respectively (FIG. 2B, lanes 4-6), as compared with pA3 which was active at 1×10^-6 M (lane 3).

[2] = test system: 2-5A synthetase/RNase L pathway; HHV-6; settings: CFS patients, cited from earlier work

Row | Substance | inhibition of HIV-1-induced syncytia formation (HIV-1 strain IIIB) | Hydrolysis Products (serum phosphodiesterases) | % Hydrolysis (serum phosphodiesterases) | Percent Inhibition of HIV-1 Reverse Transcriptase [1] | concentration at which RNase L is activated to cleave rRNA to SCP (RNase L) | inhibition of syncytia formation (in words) (HIV-1 strain IIIB) | HHV-6 activity following therapy ([2]; p<0.01) | mean basal latent 2-5A synthetase level in PBMC extracts following therapy ([2]; controls 2035±325, P<0.001) | 2-5A synthetase/RNase L pathway following therapy ([2]; in temporal association with clinical and neuropsychological improvement)
1 | Adenylyl-(2',5')-(PR) -P-thioadenylyl-(2',5')-adenylyl-(2',5')-adenosine [ApARp *ApA] | 26% | inosine, hypoxanthine; also recorded: ARp *ApA | 50% | 52% | 10000 nM | – | – | – | –
2 | Adenylyl-(2',5')-(PR)-P-thioadenylyl-(2',5')-adenosine [ApARp *A] | 100% | not hydrolyzed | 0% | 31% | 1000 nM | most efficient inhibitors of HIV-1 induced syncytia formation | – | – | –
3 | Adenylyl-(2',5')-(PS)-P-thioadenylyl-(2',5')-adenosine [ApASp *A] | 78% | not hydrolyzed | 0% | 78% | > 1000 nM | most efficient inhibitors of HIV-1 induced syncytia formation | – | – | –
4 | poly (I)-poly (C12 U) | – | – | – | – | – | – | significant decrease in HHV-6 activity | 610±220 picomoles 2-5A/mg protein/hour | down regulation of the 2-5A synthetase/RNase L pathway
